# Non-standard residues stand in square brackets, D forms with d. Residues, ends and D or L forms follow the SMILES beside them. Cha = N[C@@H](CC1CCCCC1)C(=O)O; Nle = CCCC[C@H](N)C(=O)O; Aib = CC(C)(N)C(=O)O
# Molecular target: T1, PTH receptor present on SaOS-2 (human osteosarcoma cells) (Homo sapiens, UniProt Q03431)
# T1 construct: host or cells: SaOS-2 human osteosarcoma cells (intact, confluent monolayers)
# T1 sequence (Q03431 27-593): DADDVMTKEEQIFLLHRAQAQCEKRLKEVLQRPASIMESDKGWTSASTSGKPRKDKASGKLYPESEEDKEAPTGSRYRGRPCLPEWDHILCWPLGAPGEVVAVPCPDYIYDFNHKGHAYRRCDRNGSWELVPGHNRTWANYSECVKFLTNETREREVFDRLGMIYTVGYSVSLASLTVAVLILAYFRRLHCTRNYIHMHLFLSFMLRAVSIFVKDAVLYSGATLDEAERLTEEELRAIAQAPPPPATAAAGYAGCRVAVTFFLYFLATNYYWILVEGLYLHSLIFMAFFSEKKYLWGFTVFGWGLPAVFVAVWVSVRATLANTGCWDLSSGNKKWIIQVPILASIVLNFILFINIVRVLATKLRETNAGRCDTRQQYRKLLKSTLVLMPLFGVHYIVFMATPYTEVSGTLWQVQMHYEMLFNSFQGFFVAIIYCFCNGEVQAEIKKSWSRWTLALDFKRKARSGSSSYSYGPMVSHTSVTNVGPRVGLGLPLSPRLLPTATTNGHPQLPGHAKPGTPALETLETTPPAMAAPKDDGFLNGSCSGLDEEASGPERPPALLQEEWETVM
# Assay: Binding to PTH receptor on SaOS-2 cells (competition with mono-125I-[Nle8,18,Tyr34(3-125I)]bPTH(1-34)NH2)
# Details: Table I, 2 hrs at room temperature, read-out: Kd (half maximal inhibition of binding of mono-125I-[Nle8,18, Tyr34(3-125I)]bPTH(1-34)NH2)
# Description: A. Binding to PTH Receptor
# The peptides of the invention were tested for their ability to bind to the PTH receptor present on SaOS-2 (human osteosarcoma cells). SaOS-2 cells (American Type Culture Collection, Rockville, Md.; ATCC #HTB 85) were maintained in RPMI 1640 medium (Sigma, St. Louis, Mo.) supplemented with 10% fetal bovine serum (FBS) and 2 mM glutamine at 37EC in a humidified atmosphere of 5% CO2 in air. The medium was changed every three or four days, and the cells were subcultured every week by trypsinization.
# SaOS-2 cells were maintained for four days until they had reached confluence. The medium was replaced with 5% FBS in RPMI 1640 medium and incubated for 2 hrs at room temperature with 10×10^4 cpm mono-^125I-[Nle^8,18, Tyr^34(3-^125I)]bPTH(1-34)NH2 in the presence of a competing peptides of the invention at various concentrations between 10^−11 M to 10^−4 M. The cells were washed four times with ice-cold PBS and lysed with 0.1 M NaOH, and the radioactivity associated with the cells was counted in a scintillation counter. Synthesis of mono-^125I-[Nle^8,18, Tyr^34(3-^125I)]bPTH(1-34)NH2 was carried out as described in Goldman, M. E., et al., Endocrinol., 123:1468 (1988).
# The binding assay was conducted with various peptides of the invention, and the Kd value (half maximal inhibition of binding of mono-^125I-[Nle^8,18, Tyr^34(3-^125I)]bPTH(1-34)NH2) for each peptide was calculated.
row,Kd,Compound
1,30 nM,CC[C@H](C)[C@H](NC(=O)[C@H](CCC(=O)O)NC(=O)[C@H](CO)NC(=O)[C@@H](NC(=O)[C@@H](N)CO)C(C)C)C(=O)N[C@@H](CCC(N)=O)C(=O)N[C@@H](CC(C)C)C(=O)N[C@@H](CCSC)C(=O)N[C@@H](Cc1c[nH]cn1)C(=O)N[C@@H](CC(N)=O)C(=O)N[C@@H](CC(C)C)C(=O)NCC(=O)N[C@@H](CCCCN)C(=O)N[C@@H](Cc1c[nH]cn1)C(=O)N[C@@H](CC(C)C)C(=O)N[C@@H](CC(N)=O)C(=O)N[C@@H](CO)C(=O)N[C@@H](CCSC)C(=O)N[C@@H](CCC(=O)O)C(=O)N[C@@H](CCCNC(=N)N)C(=O)N[C@H](C(=O)N[C@@H](CCC(=O)O)C(=O)N[C@@H](Cc1c[nH]c2ccccc12)C(=O)N[C@@H](CC(C)C)C(=O)N[C@@H](CCCNC(=N)N)C(=O)N[C@@H](CCCCN)C(=O)N[C@@H](CCCCN)C(=O)N[C@@H](CC(C)C)C(=O)N[C@@H](CCC(N)=O)C(=O)N[C@@H](CC(=O)O)C(=O)N[C@@H](CC1CCCCC1)C(=O)N[C@@H](Cc1c[nH]cn1)C(=O)N[C@@H](CC(N)=O)C(=O)N[C@@H](Cc1ccccc1)C(N)=O)C(C)C [[Cha^31]hPTH(1-34)NH2] (H-SVSEIQLMHNLGKHLNSMERVEWLRKKLQD[Cha]HNF-NH2)
2,40 nM,"CCCC[C@H](NC(=O)[C@H](CC(=O)O)NC(=O)[C@H](CCC(N)=O)NC(=O)[C@H](CC(C)C)NC(=O)[C@H](CCCCN)NC(=O)[C@H](CCCCN)NC(=O)[C@H](CCCNC(=N)N)NC(=O)[C@H](CC(C)C)NC(=O)[C@H](Cc1c[nH]c2ccccc12)NC(=O)[C@H](CCC(=O)O)NC(=O)[C@@H](NC(=O)[C@H](CCCNC(=N)N)NC(=O)C(C)(C)NC(=O)[C@H](CCCC)NC(=O)[C@H](CO)NC(=O)C(C)(C)NC(=O)[C@H](CC(C)C)NC(=O)[C@H](Cc1c[nH]cn1)NC(=O)[C@H](CCCCN)NC(=O)CNC(=O)[C@H](CC1CCCCC1)NC(=O)[C@H](CC(N)=O)NC(=O)[C@H](Cc1c[nH]cn1)NC(=O)[C@H](CCCC)NC(=O)[C@H](CC1CCCCC1)NC(=O)[C@H](CCC(N)=O)NC(=O)[C@@H](NC(=O)[C@H](CCC(=O)O)NC(=O)[C@H](CO)NC(=O)[C@@H](NC(=O)[C@@H](N)CO)C(C)C)[C@@H](C)CC)C(C)C)C(=O)N[C@@H](Cc1c[nH]cn1)C(=O)N[C@@H](CC(N)=O)C(=O)N[C@@H](Cc1ccc(O)cc1)C(N)=O [[Cha^7,11, Nle^8,18,31, Aib^16,19, Tyr^34]hPTH(1-34)NH2] (H-SVSEIQ[Cha][Nle]HN[Cha]GKHL[Aib]S[Nle][Aib]RVEWLRKKLQD[Nle]HNY-NH2)"
3,5 nM,CC[C@H](C)[C@H](NC(=O)[C@H](CCC(=O)O)NC(=O)[C@H](CO)NC(=O)[C@@H](NC(=O)[C@@H](N)CO)C(C)C)C(=O)N[C@@H](CCC(N)=O)C(=O)N[C@@H](CC(C)C)C(=O)N[C@@H](CCSC)C(=O)N[C@@H](Cc1c[nH]cn1)C(=O)N[C@@H](CC(N)=O)C(=O)N[C@@H](CC1CCCCC1)C(=O)NCC(=O)N[C@@H](CCCCN)C(=O)N[C@@H](Cc1c[nH]cn1)C(=O)N[C@@H](CC(C)C)C(=O)N[C@@H](CC(N)=O)C(=O)N[C@@H](CO)C(=O)N[C@@H](CCSC)C(=O)N[C@@H](CCC(=O)O)C(=O)N[C@@H](CCCNC(=N)N)C(=O)N[C@H](C(=O)N[C@@H](CCC(=O)O)C(=O)N[C@@H](Cc1c[nH]c2ccccc12)C(=O)N[C@@H](CC(C)C)C(=O)N[C@@H](CCCNC(=N)N)C(=O)N[C@@H](CCCCN)C(=O)N[C@@H](CCCCN)C(=O)N[C@@H](CC(C)C)C(=O)N[C@@H](CCC(N)=O)C(=O)N[C@@H](CC(=O)O)C(=O)N[C@H](C(=O)N[C@@H](Cc1c[nH]cn1)C(=O)N[C@@H](CC(N)=O)C(=O)N[C@@H](Cc1ccccc1)C(N)=O)C(C)C)C(C)C [[Cha^11]hPTH(1-34)NH2] (H-SVSEIQLMHN[Cha]GKHLNSMERVEWLRKKLQDVHNF-NH2)
